From PMC9475553, “SHF Acts as a Novel Tumor Suppressor in Glioblastoma Multiforme by Disrupting STAT3 Dimerization” (Advanced Science, 2022)

Legend:
[1] = test system: STAT3 transcriptional activity; assay: STAT3 transcriptional reporter (SIE luciferase) assay in U87 cells; format: cell-based, human; conditions: C16 for 12 h, n = 3, p < 0.01
Method: (§1) Figure 7 Peptide derived from the STAT3‐binding sites of SHF is an effective GBM suppressive strategy. A) Binding model between SHF and STAT3 using ZDOCK server. […] B) IF staining determined the cell penetrability and nuclear‐localization of C16. U251 cells were incubated with C16 or SC for 2 h and performed IF staining using the indicated antibodies. Bars, 10 µm. C) The statical analysis of adsorption equilibrium assay detecting the binding of C16 and SC with recombinant STAT3. D) Pull‐down assay indicating C16 binds STAT3. GST‐STAT3 was incubated with C16 or SC for 2 h, and the pull‐down assay was performed using Anti‐His magnetic beads. E) IP assay showing the effect of C16 on STAT3 dimerization. 293T cells transfected with indicated vectors were incubated with C16 for 2 h. The relative quantification of STAT3 dimerization was listed. F) IP assay detecting the effect of C16 on the interaction of STAT3 and DNMT1. […] The relative quantification of STAT3/DNMT1 interaction was listed. […] The relative quantification of STAT3/DNMT1 interaction was listed. […] Positive cells were quantified 20 randomly selected fields per mouse (n = 6, Student's t‐test, **p < 0.01). […]
STAT3 transcriptional activity was evaluated by a luciferase reporter system according our previously study.^[ [19] ^] […] Cells were collected, lysed, and measured using the Dual‐Glo Luciferase Assay System kit (Promega).

global DNA methylation = assay: Global DNA methylation (5-mC ELISA) assay in U87 cells; format: cell-based, human; conditions: U87 cells treated with C16; n = 3, p < 0.01
Method: as §1, with “293T cells transfected with indicated vectors were incubated with C16 for 2 h.” left out, “listed.” for “listed. F) IP assay detecting the effect of C16 on the interaction of STAT3 and DNMT1.”
Global DNA methylation status was quantified by the MethylFlash Global DNA Methylation (5‐mC) ELISA Easy Kit (Epigentek, Brooklyn, NY). Levels of 5‐methylcytosine (5‐mC) were calculated according to the manufacturer's instructions. In brief, the purified and quantified genomic DNA were bound to strip‐wells treated for high DNA affinity. […]

STAT3 targeted genes = assay: qRT-PCR of STAT3 targeted genes in derived xenografts; format: in vivo, mouse; conditions: 10 µg i.p. once every 2 days, n = 6, p < 0.01
Method: as §1, with “293T cells transfected with indicated vectors were incubated with C16 for 2 h.” left out, “listed.” for “listed. F) IP assay detecting the effect of C16 on the interaction of STAT3 and DNMT1.”
Total RNA was extracted using TRIzol reagent (Invitrogen) according to the manufacturer's instructions. cDNA was synthesized with the M‐MLV Reverse Transcriptase Kit (Cwbio, Beijing, China). PCR analyses were conducted to quantify mRNA expression using Real SYBR Mixture (Cwbio) on a Lightcycler 480 II instrument (Roche Applied Science). […]

## C16: peptide spanning SHF amino acids 388–421, palmitic acid at the N-terminus, amidated C-terminus, 3× His tags added to the C-terminal (PFSSVPEIVHHYASRKLPIKGAEHMSLLYPVAIR; palmitic acid at the N-terminus; amidated C-terminus; left off: 3× His tags, C-terminal, kept)
[1]
  STAT3 transcriptional activity: significant decrease
Global DNA methylation
  global DNA methylation: significant decrease
STAT3 targeted genes
  STAT3 targeted gene expression in derived xenografts: significantly down‐regulated
